Results as given in the NIST ThermoML archive (doi:10.1021/je060475r).

Assay: xn = mol fraction of the nth substance listed
Conditions: 101 kPa, Liquid

O=CN1CCOCC1 [N-formylmorpholine] + Cc1ccccc1
Conditions	mass density [kg/m3]	viscosity [mPa·s]
298.15 K, x2 = 0	1146.06	7.955
298.15 K, x2 = 0.0997	1118.85	6.045
298.15 K, x2 = 0.1857	1095.98	4.343
298.15 K, x2 = 0.2987	1064.62	3.106
298.15 K, x2 = 0.3979	1036.62	2.334
298.15 K, x2 = 0.4996	1007.87	1.769
298.15 K, x2 = 0.5993	979.41	1.376
298.15 K, x2 = 0.701	949.94	1.064
298.15 K, x2 = 0.8004	920.72	0.846
298.15 K, x2 = 0.9	891.62	0.681
303.15 K, x2 = 0	1141.7	6.877
303.15 K, x2 = 0.0997	1114.45	5.223
303.15 K, x2 = 0.1857	1091.57	3.824
303.15 K, x2 = 0.2987	1060.17	2.771
303.15 K, x2 = 0.3979	1032.11	2.116
303.15 K, x2 = 0.4996	1003.25	1.614
303.15 K, x2 = 0.5993	974.76	1.261
303.15 K, x2 = 0.701	945.23	0.994
303.15 K, x2 = 0.8004	916.11	0.79
303.15 K, x2 = 0.9	887	0.636
313.15 K, x2 = 0	1132.96	5.214
313.15 K, x2 = 0.0997	1105.62	4.037
313.15 K, x2 = 0.1857	1082.68	3.035
313.15 K, x2 = 0.2987	1051.22	2.248
313.15 K, x2 = 0.3979	1022.87	1.754
313.15 K, x2 = 0.4996	993.89	1.323
313.15 K, x2 = 0.5993	965.36	1.076
313.15 K, x2 = 0.701	935.9	0.854
313.15 K, x2 = 0.8004	906.8	0.69
313.15 K, x2 = 0.9	877.53	0.569
323.15 K, x2 = 0	1124.33	4.08
323.15 K, x2 = 0.0997	1096.88	3.219
323.15 K, x2 = 0.1857	1073.89	2.475
323.15 K, x2 = 0.2987	1042.33	1.864
323.15 K, x2 = 0.3979	1013.75	1.471
323.15 K, x2 = 0.4996	984.5	1.13
323.15 K, x2 = 0.5993	955.91	0.929
323.15 K, x2 = 0.701	926.58	0.747
323.15 K, x2 = 0.8004	897.51	0.613
323.15 K, x2 = 0.9	868.21	0.508
333.15 K, x2 = 0	1115.63	3.284
333.15 K, x2 = 0.0997	1088.08	2.622
333.15 K, x2 = 0.1857	1065	2.057
333.15 K, x2 = 0.2987	1033.38	1.576
333.15 K, x2 = 0.3979	1004.52	1.259
333.15 K, x2 = 0.4996	975.06	0.979
333.15 K, x2 = 0.5993	946.52	0.813
333.15 K, x2 = 0.701	917.23	0.66
333.15 K, x2 = 0.8004	888.11	0.544
333.15 K, x2 = 0.9	858.77	0.453
343.15 K, x2 = 0	1107.96	2.707
343.15 K, x2 = 0.0997	1080.32	2.189
343.15 K, x2 = 0.1857	1057.15	1.748
343.15 K, x2 = 0.2987	1025.32	1.353
343.15 K, x2 = 0.3979	996.41	1.096
343.15 K, x2 = 0.4996	966.84	0.888
343.15 K, x2 = 0.5993	938.07	0.72
343.15 K, x2 = 0.701	908.7	0.59
343.15 K, x2 = 0.8004	879.44	0.49
343.15 K, x2 = 0.9	850.05	0.412
353.15 K, x2 = 0	1098.76	2.274
353.15 K, x2 = 0.0997	1070.98	1.804
353.15 K, x2 = 0.1857	1047.73	1.505
353.15 K, x2 = 0.2987	1015.94	1.179
353.15 K, x2 = 0.3979	986.63	0.96
353.15 K, x2 = 0.4996	957.13	0.791
353.15 K, x2 = 0.5993	928.16	0.644
353.15 K, x2 = 0.701	898.81	0.531
353.15 K, x2 = 0.8004	869.48	0.444
353.15 K, x2 = 0.9	839.94	0.377
